Patent US6706663B2, “Herbicidal 3-heterocyclic substituted benzisothiazole and benzisoxazole compounds” (Wyeth, priority 2000, dated 2004)

Columns and labels:
[1] = system: ECHCG (Echinochloa crus-galli); assay: Postemergence herbicidal evaluation; assay type: in vivo, (L.) Beau; conditions: for ECHCG herbicidal rating: postemergence
Procedure, shortened: (§1)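 Seedlings grown about two weeks in flats, sprayed, then kept under standard greenhouse care. Rated visually 4–5 weeks after treatment on a 0–9 scale (stand, vigour, malformation, size, chlorosis, overall appearance) relative to untreated control; repeat tests averaged.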

[2] = system: IPOHE (Ipomoea hederacea); assay: Postemergence herbicidal evaluation; assay type: in vivo, (L.) Jacq.; conditions: for IPOHE herbicidal rating: postemergence
Procedure, shortened: as §1

[3] = system: AMBEL (Ambrosia artemisifolia); assay: Preemergence herbicidal evaluation; assay type: in vivo, L.; conditions: rated 4-5 weeks after treatment
Procedure, shortened: (§2)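 Applied before emergence as an aqueous acetone spray over seeded soil. Read-out: 0–9 visual rating covering plant stand, vigor, size, chlorosis, malformation and overall appearance compared with control, taken 4–5 weeks after spraying.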

[4] = system: CHEAL (Chenopodium album); assay: Preemergence herbicidal evaluation; assay type: in vivo, L.; conditions: rated 4-5 weeks after treatment
Procedure, shortened: as §2

[5] = system: CASOB (Cassia obtusifolia); assay: Preemergence herbicidal evaluation; assay type: in vivo, L.; conditions: rated 4-5 weeks after treatment
Procedure, shortened: as §2

ZEAMX (Corn, Field) [6] = assay: Postemergence herbicidal evaluation; assay type: in vivo, Zea mays, L.; conditions: for ZEAMX herbicidal rating: postemergence
Procedure, shortened: as §1

ZEAMX (Corn, Field) [7] = assay: Preemergence herbicidal evaluation; assay type: in vivo, Zea mays, L.; conditions: rated 4-5 weeks after treatment
[8] = system: GLXMAW (Soybean, Williams); assay: Postemergence herbicidal evaluation; assay type: in vivo, Glycine max, (L.) Merr. cv Williams; conditions: for GLXMAW herbicidal rating: postemergence
Procedure, shortened: as §1

[9] = system: ECHORC (Echinochloa oryzoides); assay: Flooded paddy, preemergence weed control; assay type: in vivo, Echinochloa oryzoides (Ard.) Fritsch.; conditions: rated 3-4 weeks after treatment, 0-9 rating scale
Procedure, shortened: (§3)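 Ratings of 0-9 reflect visual comparison with a control for stand, vigor, deformity, size, chlorosis and overall look. Propagules were placed in shallow silt loam (top 0.5 cm) under a continuous 1.5–3 cm flood and grown in the greenhouse.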

GALAP (Galium aparine) [10] = assay: Postemergence herbicidal evaluation; assay type: in vivo; conditions: for GALAP herbicidal rating: postemergence
Procedure, shortened: as §1

[11] = system: ABUTH (Abutilon theophrasti); assay: Postemergence herbicidal evaluation; assay type: in vivo, Medic.; conditions: for ABUTH herbicidal rating: postemergence
Procedure, shortened: as §1

GALAP (Galium aparine) [12] = assay: Preemergence herbicidal evaluation; assay type: in vivo; conditions: rated 4-5 weeks after treatment
Procedure, shortened: as §2

CYPIR (Cyperus iria) = assay: Flooded paddy, preemergence weed control; assay type: in vivo; conditions: rate 0.1250 kg/ha, rated 3-4 weeks after treatment, 0-9 rating scale
Procedure, shortened: as §3

[13] = system: GLXMAW (Soybean, Williams); assay: Preemergence herbicidal evaluation; assay type: in vivo, Glycine max, (L.) Merr. cv Williams; conditions: rated 4-5 weeks after treatment
[14] = system: SAGPY (Sagittaria pygmaea); assay: Flooded paddy, preemergence weed control; assay type: in vivo, L.; conditions: rate 0.0080 kg/ha, rated 3-4 weeks after treatment, 0-9 rating scale
Procedure, shortened: as §3

[15] = system: AMBEL (Ambrosia artemisifolia); assay: Postemergence herbicidal evaluation; assay type: in vivo, L.; conditions: for AMBEL herbicidal rating: postemergence
Procedure, shortened: as §1

[16] = system: CHEAL (Chenopodium album); assay: Postemergence herbicidal evaluation; assay type: in vivo, L.; conditions: for CHEAL herbicidal rating: postemergence
Procedure, shortened: as §1

[17] = system: CASOB (Cassia obtusifolia); assay: Postemergence herbicidal evaluation; assay type: in vivo, L.; conditions: for CASOB herbicidal rating: postemergence
Procedure, shortened: as §1

ORYSAT (Rice, Tebonnet) = assay: Preemergence herbicidal evaluation; assay type: in vivo, Oryza sativa, (L.) Tebonnet; conditions: rated 4-5 weeks after treatment
[18] = system: TRZAWR (Wheat, Winter, cv Riband); assay: Preemergence herbicidal evaluation; assay type: in vivo, Triticum aestivum; conditions: rated 4-5 weeks after treatment
Procedure, shortened: as §2

[19] = system: CYPSE (Cyperus serotinus); assay: Flooded paddy, preemergence weed control; assay type: in vivo, Rottb.; conditions: rated 3-4 weeks after treatment, 0-9 rating scale
Procedure, shortened: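 Herbicidal effect was scored visually on a 0–9 scale against an untreated control 3–4 weeks after treatment. Compounds were applied preemergence as 50/50 v/v aqueous/acetone mixtures into flood water (1.5–3 cm deep over silt loam), at roughly 0.0080 to 0.1250 kg/ha active ingredient.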

[20] = system: IPOHE (Ipomoea hederacea); assay: Preemergence herbicidal evaluation; assay type: in vivo, (L.) Jacq.; conditions: rated 4-5 weeks after treatment
[21] = rate 0.0320 kg/ha, listed as 82
[22] = rate 0.1250 kg/ha, listed as 82

## 1-methyl-3-[3-(1,3-oxathian-2-yl)-1,2-benzisothiazol-5-yl]-6-(trifluoromethyl)uracil S′,S′-dioxide [Compound 35]
[1]; rate 0.0320 kg/ha
  ECHCG herbicidal rating: 2.0
  Postemergence herbicidal rating, ECHCG: 3.0
[1]; rate 0.0620 kg/ha
  ECHCG herbicidal rating: 3.0
  Postemergence herbicidal rating, ECHCG: 4.0
[2]; rate 0.0320 kg/ha
  IPOHE herbicidal rating: 7.0
  Postemergence herbicidal rating, IPOHE: 9.0
[2]; rate 0.0620 kg/ha
  IPOHE herbicidal rating: 9.0
  Postemergence herbicidal rating, IPOHE: 9.0
[3]; Rate 0.0620 kg/ha
  AMBEL preemergence herbicidal rating: 9.0
  Preemergence herbicidal rating AMBEL: 3.5
[3]; Rate 0.1250 kg/ha
  AMBEL preemergence herbicidal rating: 9.0
  Preemergence herbicidal rating AMBEL: 5.5
[3]; Rate 0.2500 kg/ha
  AMBEL preemergence herbicidal rating: 9.0
  Preemergence herbicidal rating AMBEL: 6.5
[4]; Rate 0.0620 kg/ha
  CHEAL preemergence herbicidal rating: 9.0
  Preemergence herbicidal rating CHEAL: 9.0
[4]; Rate 0.1250 kg/ha
  CHEAL preemergence herbicidal rating: 9.0
  Preemergence herbicidal rating CHEAL: 9.0
[4]; Rate 0.2500 kg/ha
  CHEAL preemergence herbicidal rating: 9.0
  Preemergence herbicidal rating CHEAL: 9.0
[5]; Rate 0.0620 kg/ha
  CASOB preemergence herbicidal rating: 7.0
  Preemergence herbicidal rating CASOB: 0.0
[5]; Rate 0.1250 kg/ha
  CASOB preemergence herbicidal rating: 7.0
  Preemergence herbicidal rating CASOB: 1.5
[5]; Rate 0.2500 kg/ha
  CASOB preemergence herbicidal rating: 9.0
  Preemergence herbicidal rating CASOB: 2.0
ZEAMX (Corn, Field) [6]; rate 0.0320 kg/ha
  ZEAMX herbicidal rating: 3.0
  Postemergence herbicidal rating, ZEAMX: 7.5
ZEAMX (Corn, Field) [6]; rate 0.0620 kg/ha
  ZEAMX herbicidal rating: 3.0
  Postemergence herbicidal rating, ZEAMX: 7.5
ZEAMX (Corn, Field) [7]; Rate 0.0620 kg/ha
  ZEAMX preemergence herbicidal rating: 5.5
  Preemergence herbicidal rating ZEAMX: 0.0
ZEAMX (Corn, Field) [7]; Rate 0.1250 kg/ha
  ZEAMX preemergence herbicidal rating: 9.0
  Preemergence herbicidal rating ZEAMX: 1.0
ZEAMX (Corn, Field) [7]; Rate 0.2500 kg/ha
  ZEAMX preemergence herbicidal rating: 9.0
  Preemergence herbicidal rating ZEAMX: 2.5
[8]; rate 0.0320 kg/ha
  GLXMAW herbicidal rating: 4.0
  Postemergence herbicidal rating, GLXMAW: 9.0
[8]; rate 0.0620 kg/ha
  GLXMAW herbicidal rating: 5.5
  Postemergence herbicidal rating, GLXMAW: 9.0
[9]; rate 0.0080 kg/ha
  herbicidal rating, ECHORC: 0.0
[9]; rate 0.0080 kg/ha, listed as 82
  herbicidal rating, ECHORC: 7.0
[9]; rate 0.0320 kg/ha
  herbicidal rating, ECHORC: 5.5
[9]; [21]
  herbicidal rating, ECHORC: 9.0
[9]; rate 0.1250 kg/ha
  herbicidal rating, ECHORC: 7.5
[9]; [22]
  herbicidal rating, ECHORC: 9.0
GALAP (Galium aparine) [10]; rate 0.0320 kg/ha
  GALAP herbicidal rating: 2.0
  Postemergence herbicidal rating, GALAP: 3.0
GALAP (Galium aparine) [10]; rate 0.0620 kg/ha
  GALAP herbicidal rating: 4.0
  Postemergence herbicidal rating, GALAP: 4.0
[11]; rate 0.0320 kg/ha
  ABUTH herbicidal rating: 9.0
  Postemergence herbicidal rating, ABUTH: 9.0
[11]; rate 0.0620 kg/ha
  ABUTH herbicidal rating: 9.0
  Postemergence herbicidal rating, ABUTH: 9.0
GALAP (Galium aparine) [12]; Rate 0.0620 kg/ha
  GALAP preemergence herbicidal rating: 9.0
  Preemergence herbicidal rating GALAP: 7.0
GALAP (Galium aparine) [12]; Rate 0.1250 kg/ha
  GALAP preemergence herbicidal rating: 9.0
  Preemergence herbicidal rating GALAP: 9.0
GALAP (Galium aparine) [12]; Rate 0.2500 kg/ha
  GALAP preemergence herbicidal rating: 9.0
  Preemergence herbicidal rating GALAP: 9.0
CYPIR (Cyperus iria)
  herbicidal rating, CYPIR: 9.0
[13]; Rate 0.0620 kg/ha
  GLXMAW preemergence herbicidal rating: 8.0
  Preemergence herbicidal rating GLXMAW: 0.0
[13]; Rate 0.1250 kg/ha
  GLXMAW preemergence herbicidal rating: 9.0
  Preemergence herbicidal rating GLXMAW: 0.5
[13]; Rate 0.2500 kg/ha
  GLXMAW preemergence herbicidal rating: 9.0
  Preemergence herbicidal rating GLXMAW: 2.0
[14]
  herbicidal rating, SAGPY: 0.0
[15]; rate 0.0320 kg/ha
  AMBEL herbicidal rating: 4.0
  Postemergence herbicidal rating, AMBEL: 9.0
[15]; rate 0.0620 kg/ha
  AMBEL herbicidal rating: 9.0
  Postemergence herbicidal rating, AMBEL: 9.0
[16]; rate 0.0320 kg/ha
  CHEAL herbicidal rating: 7.0
  Postemergence herbicidal rating, CHEAL: 9.0
[16]; rate 0.0620 kg/ha
  CHEAL herbicidal rating: 9.0
  Postemergence herbicidal rating, CHEAL: 9.0
[17]; rate 0.0320 kg/ha
  CASOB herbicidal rating: 4.0
  Postemergence herbicidal rating, CASOB: 9.0
[17]; rate 0.0620 kg/ha
  CASOB herbicidal rating: 4.0
  Postemergence herbicidal rating, CASOB: 9.0
ORYSAT (Rice, Tebonnet); Rate 0.0620 kg/ha
  ORYSAT preemergence herbicidal rating: 5.5
  Preemergence herbicidal rating ORYSAT: 0.0
ORYSAT (Rice, Tebonnet); Rate 0.1250 kg/ha
  ORYSAT preemergence herbicidal rating: 9.0
  Preemergence herbicidal rating ORYSAT: 0.0
ORYSAT (Rice, Tebonnet); Rate 0.2500 kg/ha
  ORYSAT preemergence herbicidal rating: 9.0
  Preemergence herbicidal rating ORYSAT: 0.0
[18]; Rate 0.0620 kg/ha
  TRZAWR preemergence herbicidal rating: 7.0
  Preemergence herbicidal rating TRZAWR: 0.0
[18]; Rate 0.1250 kg/ha
  TRZAWR preemergence herbicidal rating: 9.0
  Preemergence herbicidal rating TRZAWR: 0.0
[18]; Rate 0.2500 kg/ha
  TRZAWR preemergence herbicidal rating: 9.0
  Preemergence herbicidal rating TRZAWR: 0.0
[19]; rate 0.0320 kg/ha
  herbicidal rating, CYPSE: 2.0
[19]; [21]
  herbicidal rating, CYPSE: 9.0
[19]; rate 0.1250 kg/ha
  herbicidal rating, CYPSE: 5.0
[19]; [22]
  herbicidal rating, CYPSE: 9.0
[20]; Rate 0.0620 kg/ha
  IPOHE preemergence herbicidal rating: 9.0
  Preemergence herbicidal rating IPOHE: 0.5
[20]; Rate 0.1250 kg/ha
  IPOHE preemergence herbicidal rating: 9.0
  Preemergence herbicidal rating IPOHE: 3.0
[20]; Rate 0.2500 kg/ha
  IPOHE preemergence herbicidal rating: 9.0
  Preemergence herbicidal rating IPOHE: 7.0
